Consider 80 molecules from the RepoRT retention time repository (doi:10.1007/s11306-011-0298-z).

The data set is described as follows: RP, Waters ACQUITY UPLC HSS T3, 100 × 2.1 mm, 1.8 µm, 30 °C, 0.3 mL/min, estimated dead time 0.73 min; A: water + 0.1% formic acid, pH 3; B: methanol + 0.1% formic acid, pH 3; gradient (min/%B) 0/0 6/0 56/100 60/100. The following applies: stereoisomer not certain.
Take `O=c1oc2c(O)c(O)cc3c(=O)oc4c(O)c(O)cc1c4c23` [ellagic acid]: the LC retention time was 30.2 min.
`Cc1cc(O)c2c(c1)C(=O)c1cc(O)cc(O)c1C2=O` [emodin]: the LC retention time is 46.4 min.
In the case of `Oc1ccc(C2Oc3cc(O)cc(O)c3CC2O)cc1` (stereo not given) [epiafzelechin], the LC retention time is 24.4 min.
Take `Oc1cc(O)c2c(c1)OC(c1ccc(O)c(O)c1)C(O)C2` (stereo not given) [epicatechin]: the LC retention time is 20.5 min.
As to `O=C(OC1Cc2c(O)cc(O)cc2OC1c1cc(O)c(O)c(O)c1)c1cc(O)c(O)c(O)c1` (stereo not given) [epigallo-catechin gallate], the LC retention time is 22.3 min.
As to `Oc1cc(O)c2c(c1)OC(c1cc(O)c(O)c(O)c1)C(O)C2` (stereo not given) [epigallocatechin], the LC retention time is 16.5 min.
With `CC(C)C(C)C=CC(C)C1CCC2C3=CC=C4CC(O)CCC4(C)C3CCC21C` (stereo not given) [ergosterol], the LC retention time was 58.9 min.
The same measure for `O=C1CC(c2ccc(O)c(O)c2)Oc2cc(O)cc(O)c21` (stereo not given) [eriodictyol]: 31 min; for `CC1(C)CCC2(CO)CCC3(C)C(=CCC4C5(C)CCC(O)C(C)(C)C5CCC43C)C2C1` (stereo not given) [erythrodiol]: 53.8 min.
On to `O=c1ccc2cc(OC3OC(CO)C(O)C(O)C3O)c(O)cc2o1` (stereo not given) [esculin], for which the LC retention time was 17.8 min.
In the case of `CCOC(=O)c1cc(O)c(O)c(O)c1` [ethyl gallate] it was 23 min.
On to `CCOC(=O)Cc1c[nH]c2ccccc12` [ethyl indole-3-acetate], for which the LC retention time was 35.5 min.
For `CCCCCC=CCC=CCCCCCCCC(=O)OCC` [ethyl linoleate], the LC retention time was 56.1 min.
In the case of `CCCCCCCCCCCCCC(=O)OCC` [ethyl tetradecanoate] it was 55.1 min; in that of `C=CCc1ccc(OC(C)=O)c(OC)c1` [eugenyl acetate], 38.3 min.
Regarding `COc1ccc(-c2cc(=O)c3c(OC)c(OC)c(OC)cc3o2)cc1O` [eupatorin-5-methylether], the LC retention time was 37.4 min.
On to `COc1cc(C=CC(=O)OC(C(=O)O)C(O)C(=O)O)ccc1O` (stereo not given) [fertaric acid], for which the LC retention time was 19.5 min.
On to `COc1cc(/C=C/C(=O)O)ccc1O` [ferulic acid], for which the LC retention time is 25.9 min.
With `Nc1nc2ncc(CNc3ccc(C(=O)NC(CCC(=O)O)C(=O)O)cc3)nc2c(=O)[nH]1` (stereo not given) [folic acid], the LC retention time was 21.3 min.
For the molecule `COc1cc2ccc(=O)oc2c(OC2OC(CO)C(O)C(O)C2O)c1O` (stereo not given) [fraxin], the LC retention time was 20.9 min.
Regarding `O=C(O)C=CC(=O)O` [fumaric acid], the LC retention time was 3.54 min.
`O=C(O)c1ccco1` [furan-2-carboxylic acid]: the LC retention time is 12.7 min.
For `O=Cc1ccco1` [furfural], the LC retention time is 12.2 min.
Regarding `O=c1c(O)c(-c2ccccc2)oc2cc(O)cc(O)c12` [galangin], the LC retention time was 41.4 min.
With `O=C(O)c1cc(O)c(O)c(O)c1` [gallic acid], the LC retention time is 8.95 min.
The same measure for `NCCCC(=O)O` [gamma-aminobutyric acid]: 2.15 min; for `NC(CCC(=O)NC(CS)C(=O)O)C(=O)O` (stereo not given) [gamma-glutamylcysteine]: 3.27 min; for `COC(=O)C1=COC(O)C2C(CO)=CCC12` (stereo not given) [genipin]: 24.2 min.
With `COc1ccc(-c2coc3cc(OC)cc(O)c3c2=O)cc1` [genistein-4,7-dimethylether], the LC retention time is 44.8 min.
Consider `O=c1c(-c2ccc(O)cc2)coc2cc(O)cc(O)c12` [genistein], for which the LC retention time is 35.1 min.
In the case of `O=C(O)c1cc(O)ccc1O` [gentisic acid], the LC retention time is 17 min.
For `CC(=O)CCC=C(C)CCC=C(C)C` [geranyl acetone], the LC retention time was 46.5 min.
As to `CC(C)=CCCC(C)=CCOC(=O)c1ccccc1` [geranyl benzoate], the LC retention time was 51.3 min.
The same measure for `CC(C)=CCCC(C)=CCOC1OC(CO)C(O)C(O)C1O` (stereo not given) [geranyl glucoside]: 36.7 min; for `CC(C)=CCCC(C)=CCOC(=O)Cc1ccccc1` [geranyl phenylacetate]: 54.6 min.
As to `CCC(=O)OCC=C(C)CCC=C(C)C` [geranyl propionate], the LC retention time is 48.2 min.
With `C=C1CC23CC1(O)CCC2C12C=CC(O)C(C)(C(=O)O1)C2C3C(=O)O` (stereo not given) [gibberellic acid], the LC retention time was 25.5 min.
For `O=C(O)C(O)C(O)C(O)C(O)CO` (stereo not given) [gluconic acid], the LC retention time was 1.4 min.
As to `O=P(O)(O)OCC1OC(O)C(O)C(O)C1O` (stereo not given) [glucose-6-phosphate], the LC retention time was 1.22 min.
On to `O=C(O)CCCC(=O)O` [glutaric acid], for which the LC retention time was 10.2 min.
On to `NC(CCC(=O)NC(CSSCC(NC(=O)CCC(N)C(=O)O)C(=O)NCC(=O)O)C(=O)NCC(=O)O)C(=O)O` (stereo not given) [glutathione disulfide], for which the LC retention time is 9.68 min.
In the case of `O=C(O)C(O)CO` (stereo not given) [glyceric acid] it was 1.45 min; in that of `NCC(=O)O` [glycine], 1.22 min.
As for `O=C(O)CO` [glycolic acid], the LC retention time is 2.3 min.
In the case of `O=CC(=O)O` [glyoxylic acid] it was 1.3 min.
The same measure for `COc1ccccc1O` [guaiacol]: 22.5 min.
On to `N=C(N)N` [guanidine], for which the LC retention time is 1.3 min.
`Nc1nc2nc[nH]c2c(=O)[nH]1` [guanine]: the LC retention time is 3.21 min.
In the case of `COc1ccc(C2CC(=O)c3c(O)cc(O)cc3O2)cc1O` (stereo not given) [hesperetin], the LC retention time is 34.8 min.
For the molecule `CCCCCC(=O)O` [hexanoic acid], the LC retention time is 30.9 min.
With `CCCCCCN` [hexylamine], the LC retention time was 15.1 min.
The same measure for `O=C(O)CNC(=O)c1ccccc1` [hippuric acid]: 17.3 min; for `NCCc1cnc[nH]1` [histamine]: 1.1 min.
Turning to `CC(CCC(=O)O)C1CCC2C3CC(O)C4CC(O)CCC4(C)C3CCC12C` (stereo not given) [hyodeoxycholic acid], the LC retention time is 46.4 min.
The same measure for `O=C(O)c1cc2ccccc2[nH]1` [indole-2-carboxylic acid]: 38.5 min.
On to `O=C(O)c1c[nH]c2ccccc12` [indole-3-carboxylic acid], for which the LC retention time is 25.6 min.
`O=C(O)CCc1c[nH]c2ccccc12` [indole-3-propionic acid]: the LC retention time is 30.3 min.
In the case of `O=C(O)C(=O)Cc1c[nH]c2ccccc12` [indole-3-pyruvic acid], the LC retention time was 30.3 min.
On to `c1ccc2[nH]ccc2c1` [indole], for which the LC retention time is 28.1 min.
The same measure for `Oc1ccc(C2Oc3cc(O)cc4c3C2c2cc(O)cc(O)c2C(c2ccc(O)cc2)C4C2c3cc(O)cc4c3C(c3cc(O)cc(O)c3C2c2ccc(O)cc2)C(c2ccc(O)cc2)O4)cc1` (stereo not given) [isohopeaphenol]: 25.9 min; for `CC(C)CCN` [isopentylamine]: 6.9 min; for `CC(C)C(O)(CC(=O)O)C(=O)O` (stereo not given) [isopropyl malic acid]: 18.1 min.
Regarding `COc1cc(-c2oc3cc(O)cc(O)c3c(=O)c2OC2OC(CO)C(O)C(O)C2O)ccc1O` (stereo not given) [isorhamnetin 3-glucoside], the LC retention time is 31.5 min.
Take `COc1cc(-c2oc3cc(O)cc(O)c3c(=O)c2OC2OC(COC3OC(C)C(O)C(O)C3O)C(O)C(O)C2O)ccc1O` (stereo not given) [isorhamnetin 3-rutinoside]: the LC retention time is 31.7 min.
As to `COc1cc(-c2oc3cc(O)cc(O)c3c(=O)c2O)ccc1O` [isorhamnetin], the LC retention time is 37.1 min.
`COc1cc(C=Cc2cc(O)cc(OC3OC(CO)C(O)C(O)C3O)c2)ccc1O` (stereo not given) [isorhapontin]: the LC retention time is 26.1 min.
On to `CCC=CCC1C(=O)CCC1CC(=O)O` (stereo not given) [jasmonic acid], for which the LC retention time is 33.7 min.
In the case of `O=C(O)C1OC(Oc2c(-c3ccc(O)cc3)oc3cc(O)cc(O)c3c2=O)C(O)C(O)C1O` (stereo not given) [kaempferol 3-O-glucuronide], the LC retention time is 30.7 min.
As to `O=c1c(OC2OC(CO)C(O)C(O)C2O)c(-c2ccc(O)cc2)oc2cc(O)cc(O)c12` (stereo not given) [kaempferol 3-glucoside], the LC retention time is 31.2 min.
The same measure for `CC1OC(OCC2OC(Oc3c(-c4ccc(O)cc4)oc4cc(O)cc(O)c4c3=O)C(O)C(O)C2O)C(O)C(O)C1O` (stereo not given) [kaempferol 3-rutinoside]: 31.4 min; for `O=c1c(O)c(-c2ccc(O)cc2)oc2cc(O)cc(O)c12` [kaempferol]: 36.6 min; for `CC(O)C(=O)O` (stereo not given) [lactic acid]: 2.51 min.
In the case of `CC(C)=CCCC(C)C1CCC2(C)C3=C(CCC12C)C1(C)CCC(O)C(C)(C)C1CC3` (stereo not given) [lanosterol] it was 58.3 min; in that of `COc1cc(-c2oc3cc(O)cc(O)c3c(=O)c2O)cc(O)c1O` [laricitrin], 34.7 min; in that of `CCCCCCCCCCCCCCCCCCCCCCCC(=O)O` [lignoceric acid], 60.2 min.
With `C=CC(C)(CCC=C(C)C)OC(=O)c1ccccc1` (stereo not given) [linalyl benzoate], the LC retention time was 50.8 min.
For `CCCCC/C=C\C/C=C\CCCCCCCC(=O)O` [linoleic acid], the LC retention time was 53.6 min.
In the case of `CCC=CCC=CCC=CCCCCCCCC(=O)O` [linolenic acid], the LC retention time is 52.3 min.
For `C=C(C)C1CCC2(C)CCC3(C)C(CCC4C5(C)CCC(O)C(C)(C)C5CCC43C)C12` (stereo not given) [lupeol], the LC retention time is 60 min.
Take `O=c1cc(-c2ccc(O)c(O)c2)oc2cc(OC3OC(CO)C(O)C(O)C3O)cc(O)c12` (stereo not given) [luteolin 7-glucoside]: the LC retention time was 28.1 min.
